For data set [1], the system named is A375-C5. Details: method as in Novais et al. [17]. As to conditions: 48 h; ref Novais et al. [17]; cited from earlier work.
Data set [2] has as its system MCF-7. As to conditions: 48 h, cited from earlier work.
Data set [3] concerns HCT116 (HCT116 p53+/+). As to conditions: 48 h, cited from earlier work.
Data set [4] relates to HPAEpiC. Details: method as in Novais et al. [17]. As to conditions: 48 h, non-tumor cells; ref Novais et al. [17]; cited from earlier work.
The subject of another data set is HFF-1 and HPAEpiC cells. Also noted: method as in PMID 34170069, PMID 34885726. As to conditions: fibroblasts HFF-1 and HPAEpiC; ref [12],[17]; cited from earlier work.
On the set-up of data set [5]: method as in PMID 34885726. As to conditions: used at 2×GI50; ref [17]; cited from earlier work.
Data set [6] concerns A375-C5. In words: Sulforhodamine B (SRB) growth inhibition assay, melanoma cells. Format: cell-based. As to conditions: Homo sapiens, 48 h. How it is done: (§1) A sulforhodamine B (SRB) assay was performed to evaluate the in vitro growth inhibitory activity of all synthesized hybrids, as well as intermediates in the human tumor cell lines of melanoma (A375-C5), breast adenocarcinoma (MCF-7), and colorectal carcinoma (HCT116), as well as on the non-tumor Human Pulmonary Alveolar Epithelial cell line (HPAEpiC). The concentration inducing 50% cell growth inhibition (GI50), was calculated. […] The overall results prompt us to further investigate the mechanism behind the cytotoxic activities of compounds 6, 7, and 13 in colorectal tumor cells. Moreover, in silico studies were performed, aiming to screen for drug-likeness.
(§2) A375-C5 (melanoma) and MCF-7 (breast adenocarcinoma) cell lines were obtained from the European Collection of Cell Culture, UK, and were grown in RPMI-1640 medium (Roswell Park Memorial Institute, Biochrom, Cambridge, UK) with 5% inactivated FBS (fetal bovine serum, Biochrom). HCT-116 (colon adenocarcinoma) cells were grown in DMEM medium (Dulbecco’s Modified Eagle’s, Biochrom) with 5% inactivated FBS. The non-tumor human pulmonary alveolar epithelial cells (HPAEpiC) were obtained from ScienCell Research Laboratories and grown in DMEM medium supplemented with 10% FBS and 1% non-essential amino acids (Sigma-Aldrich Co., Saint Louis, MO, USA). All cell lines were maintained in a humidified incubator (Hera Cell, Heraeus, Hanau, Germany) at 37 °C and with 5% CO2, and cell viability was regularly monitored using the exclusion trypan blue dye.
(§3) A total of 5.0 × 10^4 A375-C5, MCF-7, and HCT-116 cells, or 6.0 × 10^4 HPAEpiC cells were seeded in 96-well plates and incubated at 37 °C and 5% CO2 to allow for cell attachment. After 24 h, cells were treated with two-fold serial dilutions of test compounds (0–150 µM), or with DMSO as the compound solvent. In parallel, cells in a time-zero (T0) plate, without treatment, were fixed with 50% (m/v) trichloroacetic acid (TCA, Merck Millipore, Darmstadt, Germany), for 1 h at 4 °C, and then washed with distilled water and left to dry. Forty-eight hours after compound treatment, cells were fixed with 50% TCA and stained with SRB (Sigma-Aldrich Co., Ltd., Gillingham, UK) for 30 min at room temperature, followed by 5 rounds of washing with 1% (v/v) acetic acid (Merck Milli-pore, Darmstadt, Germany). SRB–protein complexes were then solubilized with […] Tris buffer (Sigma-Aldrich Co., Ltd., Gillingham, UK) for 30 min, and the absorbance was measured at 515 nm in a microplate reader (Biotek Synergy 2, BioTek Instruments, Inc., Winooski, VT, USA). A dose-response curve was obtained for each cell line, and the concentration that caused 50% cell growth inhibition (GI50) was calculated.

For data set [7], the system named is HPAEpiC. Description: SRB growth inhibition assay, non-tumor pulmonary alveolar epithelial cells. Format: cell-based. As to conditions: Homo sapiens, Epithelial cell, 48 h. How it is done:
as §1, §2, §3

Another data set concerns HCT116 p53−/−. In words: SRB growth inhibition assay, p53 knocked-out colorectal cells. Type of data set: cell-based, human. As to conditions: for GI50: Homo sapiens, HCT-116, Table 2, 48 h. On the procedure: as §3
Data set [8] deals with T1, p53–MDM2 interaction (Homo sapiens, UniProt Q00987).
T1 construct: expressed in transfected cells; host or cells: Saccharomyces cerevisiae strain CG379
Also noted: method as in doi:10.1016/j.arabjc.2016.04.015. As to conditions: ref [16]; cited from earlier work.

Data set [9] has as its system MCF-7. In words: SRB growth inhibition assay, breast adenocarcinoma cells. Format: cell-based. As to conditions: Homo sapiens, MCF7, 48 h. How it is done:
as §1, §2, §3

Data set [10] has as its system HCT116 (HCT116 p53+/+). Description: SRB growth inhibition assay, colorectal carcinoma cells. Format: cell-based. As to conditions: Homo sapiens, HCT-116. On the procedure: as §1, §2, §3
Data set [11] has as its target T1, p53–MDM2 interaction. In words: Yeast targeted screening assay of p53–MDM2 interaction. As to conditions: 10 μM, yeast cell-based assay, data not shown. On the procedure: However, since CM-M345 (1) has been previously reported as a p53-MDM2 inhibitor by our research group, the effect of 10 μM of compounds 6, 7, and 13 on the p53–MDM2 interaction was analyzed using yeast cell-based assays.
Saccharomyces cerevisiae (strain CG379) expressing human wt p53 alone and combined with human MDM2 were obtained in previous works. For the expression of human proteins (routinely grown in minimal selective medium), cells were diluted to 0.05 OD600 in selective induction medium containing 2% (w/w) galactose, 1% (w/w) raffinose, 0.7% (w/w) yeast nitrogen base without amino acids from Difco (Quilaban, Sintra, Portugal), and all the amino acids required for yeast growth ([…]) except leucine and tryptophan. Yeast cells were incubated at 30 °C under continuous orbital shaking (200 rpm) with 10 µM compounds or 0.1% DMSO only, for approximately 42 h (time required by the control yeast, co-transformed with the empty vectors and incubated with DMSO only, to achieve 0.4 OD600). Yeast growth was analyzed by counting the number of colony-forming units (CFU) after 2 days of incubation at 30 °C on Sabouraud Dextrose Agar from Liofilchem (Frilabo, Porto, Portugal).

Data set [12] has as its system HCT116 cells. Description: Apoptosis detection via flow cytometry (Annexin V-FITC/PI). Format: cell-based, human. As to conditions: HCT116, 48 h, vs untreated or DMSO. How it is done:
Double labeling with annexin V-FITC and propidium iodide dyes was used to detect cells going through apoptotic events, using a flow cytometer in order to obtain insights into the mechanism by which compounds 6, 7, and 13 generate antiproliferative activity against colorectal carcinoma cells. For that, HCT116 cells were exposed to each compound for 48 h.
To evaluate apoptotic cell death, the “Annexin V-FITC Apoptosis Detection Kit” (eBioscience, Vienna, Austria) was used according to the manufacturer’s instructions. Briefly, 1.2 × 10^5 cells/well were seeded into 6-well plates, and 24 h later, cells were treated with compounds 6, 7, and 13. After 48 h, floating and adherent cells were collected, pelleted via centrifugation (1000 rpm, 5 min), and suspended in binding buffer. Annexin V-FITC was added and incubated for 10 min, protected from light. Cells were washed and resuspended in binding buffer, and 20 μg/mL of propidium iodide (PI) was added. Fluorescence was assessed using the BD Accuri™ C6 Plus flow cytometer (BD Biosciences, Qume Drive, San Jose, CA, USA), and the data were analyzed with the BD Accuri TM C6 Plus software (version 1.0.27.1, San Jose, CA, USA). At least 20,000 events per sample were collected.
Background: Flow cytometry measures light scatter and fluorescence of single cells or particles in a stream.

Data set [13] concerns HCT116 cells. In words: Mitotic arrest / mitotic index by phase-contrast microscopy. As to conditions: HCT116, 24 h, phase contrast microscopy. Format: cell-based, human. On the procedure:
Disruption of cell cycle progression is considered one of the most common cytotoxic mechanisms of anticancer drugs. Moreover, the antimitotic effect of BP-M345 (2) has been previously reported. Therefore, compounds 6, 7, and 13 were tested for their capability to induce cell cycle arrest. HCT116 cells were exposed for 24 h to the compounds and then analyzed using phase contrast microscopy for morphological changes. Untreated and dimethyl sulfoxide (DMSO; solvent)-treated cells were used as negative controls. Cell exposure to nocodazole, an antimitotic agent, was used as a positive control. […] We thus calculated the mitotic index (MI), and observed a significant increase in MI in 7-treated cells (22.76 ± 4.30%) compared to the untreated (12.68 ± 1.98%) or DMSO-treated (12.81 ± 1.45%) (Figure 4c).
A total of 1.2 × 10^5 HCT-116 cells were grown in six-well dishes and treated for 24 h with 3.26 µM of compound 7. Cells treated with 1 µM nocodazole were used as a positive control for antimitotic activity. Untreated cells and cells treated with DMSO were included to exclude the cytotoxicity of the compound solvent. Mitotic index, and the percentage of mitotic cells over the total cell population were determined via cell-rounding under phase-contrast microscopy from at least ten random microscope fields.
For phase contrast microscopy images, a Nikon TE 2000-U microscope (Nikon, Amsterdam, The Netherlands) with a 10× objective was used, coupled to a DXM1200F digital camera with Nikon ACT-1 software (Melville, NY, USA). For fluorescence images, an Axio Observer Z.1 SD microscope (Carl Zeiss, Germany) was used, coupled to an AxioCam MR3, with the Plan Apochromatic 63×/NA 1.4 objective. The images were processed using ImageJ, version 1.51.

For data set [14], the system named is A375-C5, MCF-7 and HCT116 cell lines. In words: SRB growth inhibition, range over the tumor cell lines of Table 1. Format: cell-based. As to conditions: Homo sapiens; SAR discussion, values of Table 1. On the procedure:
Considering the antiproliferative effects on tumor cells of all the studied compounds (Table 1), some SAR considerations may be undertaken (Figure 2). […] Nevertheless, this effect is not observed for the flavone derivatives 15 and 16. […] Additionally, with the screening of the synthetic intermediates, some conclusions can also be inferred (Figure 2).
as §3

Where [15] appears, read: SRB, 48 h, read-out: GI50 HCT116.
The mark [16] stands for this setting: Table 2, 48 h, read-out: GI50 HCT116 p53+/+.

Where two headings read alike, the source gives them in different places.

T1 sequence (Q00987 whole entry): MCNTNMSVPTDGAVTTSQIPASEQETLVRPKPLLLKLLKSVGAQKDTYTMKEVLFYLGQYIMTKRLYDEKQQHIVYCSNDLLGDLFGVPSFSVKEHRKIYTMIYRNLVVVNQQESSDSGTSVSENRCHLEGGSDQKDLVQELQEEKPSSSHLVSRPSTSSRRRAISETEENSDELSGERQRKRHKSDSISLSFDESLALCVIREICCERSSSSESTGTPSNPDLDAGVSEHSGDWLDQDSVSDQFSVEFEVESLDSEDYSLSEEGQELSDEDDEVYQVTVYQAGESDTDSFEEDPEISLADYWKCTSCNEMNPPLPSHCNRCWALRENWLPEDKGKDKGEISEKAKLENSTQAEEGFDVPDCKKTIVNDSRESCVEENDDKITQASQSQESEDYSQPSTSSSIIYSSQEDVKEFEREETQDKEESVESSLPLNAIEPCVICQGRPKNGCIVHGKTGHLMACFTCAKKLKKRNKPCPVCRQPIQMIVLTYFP

As for `COc1cc(/C=C2\COC/C(=C\c3cc(OC)c(OC)c(OC)c3)C2=O)cc(OC)c1OC` [BP-M345 (2)], the GI50 in the data set with A375-C5 [1] was 240 ± 10 nM; in the data set with MCF-7 [2] (ref Novais et al. [17]) it was 450 ± 60 nM; in the data set with HCT116 (HCT116 p53+/+) [3] (ref Moreira et al. [12]), 170 ± 10 nM; in the data set with HPAEpiC [4], 1070 ± 160 nM. Further, in the data set with HFF-1 and HPAEpiC cells, the “Cytotoxicity in non-tumor cell lines” value was “low cytotoxicity”. In addition, the “Mitotic index (MI)” value in data set [5] was 29.8 ± 5.6%.
Take `CCCc1c(OC)ccc(C(=O)/C=C/c2cc(OC)c(OC)c(OC)c2)c1O` [CM-M345 (1), reference compound]: the GI50 in the data set on A375-C5 [6] is 5570 ± 60 nM; in the data set on HPAEpiC [7], 6100 ± 660 nM; in the data set with MCF-7 [2] (ref Pereira et al. [16]), 2300 ± 100 nM; with HCT116 (HCT116 p53+/+) [3] (ref Pereira et al. [16]) it was 2600 ± 200 nM. Moreover, the “SI, selective index (GI50 of HCT116 p53−/−/GI50 of HCT116 p53+/+)” value (shortened to “SI, selective index”) in the data set with HCT116 p53−/− is on record as 1.31. Also, the “Inhibition of the p53–MDM2 interaction in yeast-based assays” value at p53–MDM2 interaction [8] is on record as “inhibitor of the interaction”.
Regarding `CCCc1c(OCCNC(=O)OC(C)(C)C)ccc(C(=O)/C=C/c2cc(OC)c(OC)c(OC)c2)c1O` [Compound 6, tert-butyl(E)-(2-(3-hydroxy-2-propyl-4-(3-(3,4,5-trimethoxyphenyl)acryloyl)phenoxy)ethyl)carbamate], the GI50 came to 3610 ± 1110 nM in the data set on A375-C5 [6]; 39800 ± 2110 nM in the data set on MCF-7 [9]; 2810 ± 650 nM in the data set with HCT116 (HCT116 p53+/+) [10] (setting [15]); 2810 ± 650 nM with HCT116 (HCT116 p53+/+) [10] (setting [16]); 9600 ± 940 nM with HPAEpiC [7]; 1900 ± 300 nM in the data set with HCT116 p53−/−. For the same molecule, in data set [14], the GI50 is 2810 to 39800 nM. Besides, the “SI, selective index” value with HCT116 p53−/− is on record as 0.68. On p53–MDM2 interaction [11], the “Effect on the p53–MDM2 interaction (reversal of the negative growth effect of MDM2 on p53)” value was “none of the tested compounds significantly reversed the negative inhibitory growth effect of MDM2 on p53”. Moreover, in the data set on HCT116 cells [12], the “Apoptosis induction (Annexin V-positive cells)” value is “induces apoptotic tumor cell death”. Moreover, in the data set with HCT116 cells [13], the “Accumulation of bright and rounded (mitotic) cells” value is “not observed”.
Turning to `CCCc1c(OCC(=O)Nc2cc(OC)c(OC)c(OC)c2)ccc(C(=O)/C=C/c2cc(OC)c(OC)c(OC)c2)c1O` [Compound 13, (E)-2-(3-hydroxy-2-propyl-4-(3-(3,4,5-trimethoxyphenyl)acryloyl)phenoxy)-N-(3,4,5-trimethoxyphenyl)acetamide], the GI50 in the data set on A375-C5 [6] came to 9370 ± 900 nM; in the data set with MCF-7 [9] it was 18800 ± 3460 nM; in the data set on HCT116 (HCT116 p53+/+) [10] (setting [15]), 2660 ± 870 nM; in the data set on HCT116 (HCT116 p53+/+) [10] (setting [16]) it was 2660 ± 870 nM; in the data set on HPAEpiC [7] it was 10800 ± 230 nM; with HCT116 p53−/−, 4100 ± 500 nM. Besides, the “SI, selective index” value with HCT116 p53−/− stood at 1.54. Moreover, the “Effect on the p53–MDM2 interaction (reversal of the negative growth effect of MDM2 on p53)” value at p53–MDM2 interaction [11] is reported as “none of the tested compounds significantly reversed the negative inhibitory growth effect of MDM2 on p53”. Also, the “Apoptosis induction (Annexin V-positive cells)” value in the data set on HCT116 cells [12] is “induces apoptotic tumor cell death”. The “Accumulation of bright and rounded (mitotic) cells” value in the data set on HCT116 cells [13] was “not observed”.

The values above are taken from paper PMC10303900, “Discovery of a New Chalcone-Trimethoxycinnamide Hybrid with Antimitotic Effect: Design, Synthesis, and Structure—Activity Relationship Studies” (Pharmaceuticals, 2023).
